Data on 47 compounds can be found in paper PMC8565778, “Evaluation of health benefits of sea lamprey (Petromyzon marinus) isolates using in vitro antiinflammatory and antioxidant assays” (PLoS ONE, 2021).

Assay [1] deals with T1, COX-1 (cyclooxygenase enzyme-1) (Ovis aries, UniProt P05979).
T1 construct: gene PTGS1
T1 sequence (P05979 25-600): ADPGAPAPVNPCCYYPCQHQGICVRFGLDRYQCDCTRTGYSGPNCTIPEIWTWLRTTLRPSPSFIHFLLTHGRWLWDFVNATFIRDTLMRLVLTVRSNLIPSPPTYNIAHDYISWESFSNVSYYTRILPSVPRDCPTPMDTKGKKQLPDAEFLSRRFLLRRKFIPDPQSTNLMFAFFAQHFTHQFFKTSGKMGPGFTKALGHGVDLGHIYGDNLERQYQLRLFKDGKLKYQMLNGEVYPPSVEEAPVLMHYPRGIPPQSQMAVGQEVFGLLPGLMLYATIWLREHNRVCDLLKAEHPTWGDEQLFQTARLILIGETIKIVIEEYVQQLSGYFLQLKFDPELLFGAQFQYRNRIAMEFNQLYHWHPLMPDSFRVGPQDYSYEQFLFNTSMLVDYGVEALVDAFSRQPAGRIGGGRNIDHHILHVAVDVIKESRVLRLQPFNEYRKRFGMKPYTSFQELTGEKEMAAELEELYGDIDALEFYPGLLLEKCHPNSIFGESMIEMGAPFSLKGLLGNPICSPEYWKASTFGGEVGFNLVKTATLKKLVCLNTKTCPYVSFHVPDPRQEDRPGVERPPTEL
Put plainly: biochemical. Also on record: In vitro cyclooxygenase (COX-1 and COX-2) enzyme inhibition assay, percent inhibition. The conditions noted are these: read-out: % inhibition. The procedure: (see S1 File for experimental details). To evaluate the health-beneficial activity of the sea lamprey compounds, we included all isolates of sea lamprey extract for the evaluation of in vitro antiinflammatory and antioxidant activities. […] (S1 File). […] Antiinflammatory activities of arginine, tyrosine, tryptophan, asparagine and inosine were assayed at 50 μg/mL concentration.

Assay [2] has as its target T2, COX-2 (cyclooxygenase enzyme-2) (Homo sapiens, UniProt P35354).
T2 construct: gene PTGS2
T2 sequence (P35354 18-604): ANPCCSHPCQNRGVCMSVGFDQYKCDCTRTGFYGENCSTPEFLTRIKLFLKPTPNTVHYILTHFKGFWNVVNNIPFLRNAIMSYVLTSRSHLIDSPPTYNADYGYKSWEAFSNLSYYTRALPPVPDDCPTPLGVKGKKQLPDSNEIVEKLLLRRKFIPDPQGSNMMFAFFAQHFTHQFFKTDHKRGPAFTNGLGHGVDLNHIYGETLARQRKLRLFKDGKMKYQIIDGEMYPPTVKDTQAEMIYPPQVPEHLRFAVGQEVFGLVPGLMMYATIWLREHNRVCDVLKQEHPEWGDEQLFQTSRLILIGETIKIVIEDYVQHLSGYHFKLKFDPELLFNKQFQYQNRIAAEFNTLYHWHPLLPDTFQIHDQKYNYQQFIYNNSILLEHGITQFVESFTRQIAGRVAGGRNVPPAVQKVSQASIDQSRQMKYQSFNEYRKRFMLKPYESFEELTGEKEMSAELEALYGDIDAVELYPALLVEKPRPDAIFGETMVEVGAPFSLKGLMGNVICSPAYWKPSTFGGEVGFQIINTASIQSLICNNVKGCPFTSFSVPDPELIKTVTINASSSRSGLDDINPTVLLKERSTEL
Put plainly: biochemical. Also on record: In vitro cyclooxygenase (COX-1 and COX-2) enzyme inhibition assay, percent inhibition. The conditions noted are these: read-out: % inhibition.

Details of assay [3]: Fe2+-induced liposome lipid peroxidation; per cent inhibition measured as loss of fluorescent probe signal. To be noted: large unilamellar vesicles; LPO (lipid peroxidation of large unilamellar liposomes, Fe2+-initiated); 25 ug/mL; inhibitor. The procedure: Pure compounds and positive controls were assayed for LPO inhibitory activities according to published procedures from our laboratory (see S1 File for experimental details). The antioxidant assay, the lipid peroxidation inhibitory (LPO) assay, used in this study measures free radical scavenging capability of pure compounds and extracts. In this assay, peroxidation of the lipid was initiated by the addition of Fe^2+ resulting in the generation of radicals, which cause the peroxidation of LUV and in turn the fluorescent probes embedded in it. The loss of fluorescent intensity in the assay indicates the oxidative damage to the lipid component of the LUV [11–15, 21] (S1 File). At 25 μg/mL concentration, cholesteryl palmitate, cholesteryl oleate, cholesteryl eicosapentaenoate and cholesteryl arachidonate inhibited LPO by 38, 60, 72 and 82%, respectively (Table 2) (Fig S in S1 File). The most abundant steroidal compound in sea lamprey was cholesterol and it lacked LPO inhibitory activity. Antioxidant activity profiles of the cholesterol esters were like its antiinflammatory profiles. That is, an increase in chain length and unsaturation increased the LPO activity. Majority of the lipophilic fraction of the sea lamprey extract consisted of glycerides and free fatty acids.

Usually inhibition stands for the percentage by which the read-out fell short of the control. The term % inhibition denotes how much of the control response was suppressed. The low end stands for little suppression, the high end for strong suppression.

Turning to `O=C(O)C(O)Cc1ccccc1` (centres unmarked) [3-Phenyllactic acid], the results for the inhibition at 25 µg/mL in assay [1] and in assay [2] were 4.42 ± 0.3% and 11.5 ± 1.6%, respectively.

With `Nc1[nH]cnc2ncnc1-2` [Adenine], the results for the inhibition at 25 µg/mL in assay [1] and in assay [2] were 11.7 ± 1.8% and 10 ± 1.4%, respectively.

For the compound `Nc1ncnc2c1ncn2[C@@H]1O[C@H](CO)[C@@H](O)[C@H]1O` [Adenosine], the inhibition at 25 µg/mL in assay [1] is 16.6 ± 1.1%; in assay [2], 14.7 ± 0.8%.

As to `N=C(N)NCCC[C@H](N)C(=O)O` [Arginine], the inhibition at 25 µg/mL in assay [1] is 29.7 ± 1.3%; in assay [2], 11.9 ± 1.9%. In the same order, the values of `NC(=O)C[C@H](N)C(=O)O` [Asparagine] are 26.8 ± 2.3% and 17.3 ± 0.9%.

On to `N[C@@H](CC(=O)O)C(=O)O` [Aspartic acid], for which the inhibition at 25 µg/mL turned out to be 11.8 ± 0.6% in assay [1] and 4.23 ± 0.6% in assay [2]. In the same order, the values of `CC(C)CCC[C@@H](C)[C@H]1CC[C@H]2[C@@H]3CC=C4C[C@@H](O)CC[C@]4(C)[C@H]3CC[C@]12C` [Cholesterol] are 2.92 ± 1.4% and 4.94 ± 2.4%. In the same order, the values of `CCCCCCCC/C=C\CCCCCCCC(=O)O[C@H]1CC[C@@]2(C)C(=CC[C@H]3[C@@H]4CC[C@H]([C@H](C)CCCC(C)C)[C@@]4(C)CC[C@@H]32)C1` [Cholesteryl oleate^#] are 45.9 ± 0.5% and 31.1 ± 2.8%. With `CCCCCCCCCCCCCCCC(=O)O[C@H]1CC[C@@]2(C)C(=CC[C@H]3[C@@H]4CC[C@H]([C@H](C)CCCC(C)C)[C@@]4(C)CC[C@@H]32)C1` [Cholesteryl palmitate^#], the inhibition at 25 µg/mL in assay [1] is 37.7 ± 2.4%; in assay [2] it was 17.7 ± 2.9%.

For the compound `CN(CC(=O)O)C(=N)N` [Creatine], the inhibition at 25 µg/mL is 13.3 ± 2.7% in assay [1] and 9.65 ± 1.3% in assay [2].

As to `N[C@@H](CS)C(=O)O` [Cysteine], the inhibition at 25 µg/mL in assay [1] stood at 12.9 ± 3.5%; in assay [2], 9.65 ± 1.3%.

Consider `N[C@@H](CCC(=O)O)C(=O)O` [Glutamic acid], for which the inhibition at 25 µg/mL in assay [1] was 32.2 ± 1.9%; in assay [2], 13.8 ± 2.4%. On to `NCC(=O)O` [Glycine], for which the inhibition at 25 µg/mL turned out to be 12.9 ± 1.4% in assay [1] and 7.01 ± 0.9% in assay [2]. In the same order, the values of `O=c1[nH]cnc2nc[nH]c12` [Hypoxanthine] are 10.9 ± 1.4% and 5.82 ± 0.4%. Consider `O=c1[nH]cnc2c1ncn2[C@@H]1O[C@H](CO)[C@@H](O)[C@H]1O` [Inosine], for which the inhibition at 25 µg/mL was found to be 35.8 ± 0.5% in assay [1] and 26.1 ± 0.9% in assay [2]. As to `CC[C@H](C)[C@H](N)C(=O)O` [Isoleucine], the inhibition at 25 µg/mL in assay [1] came out at 23.3 ± 0.6%; in assay [2], 9.92 ± 0.5%. In the same order, the values of `CC(C)C[C@H](N)C(=O)O` [Leucine] are 18.2 ± 1.3% and 4.89 ± 3.9%. Taken in the same sequence, the figures for `CSCC[C@H](N)C(=O)O` [Methionine] were 15.2 ± 1.5% and 4.36 ± 0.4%. Taken in the same sequence, the figures for `N[C@@H](Cc1ccccc1)C(=O)O` [Phenylalanine] were 15.6 ± 1.7% and 11.5 ± 1.3%. As for `O=C(O)[C@@H]1CCCN1` [Proline], the inhibition at 25 µg/mL was 21.6 ± 2.4% in assay [1] and 7.14 ± 1.1% in assay [2]. For `NCCCCN` [Putrescine], the inhibition at 25 µg/mL in assay [1] was 16.9 ± 0.2%; in assay [2], 10.3 ± 1.4%. Taken in the same sequence, the figures for `CC(=O)C(=O)O` [Pyruvic acid] were 9.48 ± 2.9% and 7.8 ± 0.8%. Taken in the same sequence, the figures for `N[C@@H](CO)C(=O)O` [Serine] were 6.25 ± 2.4% and 2.91 ± 0.3%. In the same order, the values of `NCCCNCCCCNCCCN` [Spermine] are 17.5 ± 1.9% and 3.03 ± 0.5%. Regarding `C[C@@H](O)[C@H](N)C(=O)O` [Threonine], the inhibition at 25 µg/mL was determined as 19.4 ± 1.4% in assay [1] and 5.82 ± 2.9% in assay [2]. In the same order, the values of `N[C@@H](Cc1c[nH]c2ccccc12)C(=O)O` [Tryptophan] are 37.6 ± 0.8% and 19.6 ± 1.8%. `N[C@@H](Cc1ccc(O)cc1)C(=O)O` [Tyrosine]: the inhibition at 25 µg/mL in assay [1] worked out at 37.2 ± 1.1%; in assay [2] it was 21.8 ± 2.4%. Taken in the same sequence, the figures for `CC(C)[C@H](N)C(=O)O` [Valine] were 21.6 ± 0.9% and 8.33 ± 1.3%. Consider `O=c1[nH]c(=O)c2nc[nH]c2[nH]1` [Xanthine], for which the inhibition at 25 µg/mL in assay [1] was 12.7 ± 3.8%; in assay [2] it was 4.37 ± 0.6%. Consider `CC(=O)Oc1ccccc1C(=O)O` [compound 1, Aspirin], for which the inhibition at 108 µg/mL in assay [2] was 29.8 ± 0.9%.

`CCCCCCCCCCCCCCCC(=O)O[C@H]1CC[C@@]2(C)C(=CC[C@H]3[C@@H]4CC[C@H]([C@H](C)CCCC(C)C)[C@@]4(C)CC[C@@H]32)C1` [compound 8, Cholesteryl palmitate^#]: in assay [3], the “% inhibition” value was 38.0 ± 1.4%. Still for that read-out and setting: the result for `CCCCCCCC/C=C\CCCCCCCC(=O)O[C@H]1CC[C@@]2(C)C(=CC[C@H]3[C@@H]4CC[C@H]([C@H](C)CCCC(C)C)[C@@]4(C)CC[C@@H]32)C1` [compound 9, Cholesteryl oleate^#] reads 59.5 ± 0.7%; that for `N=C(N)NCCC[C@H](N)C(=O)O` [compound 17, Arginine], 22.0 ± 1.4%.

In the case of `CC(C)[C@H](N)C(=O)O` [compound 18, Valine], in assay [3], the “% inhibition” value was found to be 18.5 ± 0.7%. For `CC(C)C[C@H](N)C(=O)O` [compound 19, Leucine], in assay [3], the “% inhibition” value came out at 19.5 ± 0.7%. Same read-out and setting: the result for `N[C@@H](Cc1ccc(O)cc1)C(=O)O` [compound 20, Tyrosine] reads 55.0 ± 1.4%; that for `CC[C@H](C)[C@H](N)C(=O)O` [compound 21, Isoleucine], 17.5 ± 0.7%; that for `N[C@@H](Cc1ccccc1)C(=O)O` [compound 22, Phenylalanine], 44.0 ± 1.4%. Still for that read-out and setting: then `N[C@@H](CCC(=O)O)C(=O)O` [compound 23, Glutamic acid], with 46.0 ± 1.4%; and `N[C@@H](Cc1c[nH]c2ccccc12)C(=O)O` [compound 25, Tryptophan], with 57.5 ± 0.7%.

In the case of `C[C@@H](O)[C@H](N)C(=O)O` [compound 26, Threonine], in assay [3], the “% inhibition” value came to 45.0 ± 1.4%. Take `NC(=O)C[C@H](N)C(=O)O` [compound 27, Asparagine]: the “% inhibition” value in assay [3] is 28.0 ± 1.4%.

With `NCC(=O)O` [compound 29, Glycine], the “% inhibition” value in assay [3] amounted to 16.5 ± 0.7%. For `CCC(=O)C(=O)O` [α-Ketobutyric acid], the results for the inhibition at 25 µg/mL in assay [1] and in assay [2] were 5.24 ± 0.3% and 9.65 ± 0.4%, respectively. In the same order, the values of `CC(C)C(=O)C(=O)O` [α-Ketoisovaleric acid] are 17.1 ± 2.1% and 10.5 ± 1.8%. In the same order, the values of `CCCC(=O)C(=O)O` [α-Ketovaleric acid] are 4.13 ± 0.6% and 4.37 ± 0.5%.

Consider `CC(O)CC(=O)O` (stereo not drawn) [β-Hydroxybutyric acid], for which the inhibition at 25 µg/mL in assay [1] amounted to 19.7 ± 1.5%; in assay [2], 12.3 ± 1.6%.
